Laboratory results reported in patent publication US20240142467A1, “Use of Biomarkers in the Treatment of Fibrotic Conditions with a PDE4B-inhibitor” (Boehringer Ingelheim International GmbH, priority 2022, published 2024).

Experiments:
[1] = tested on: patients with idiopathic pulmonary fibrosis; assay: Phase 2 trial NCT04419506: change from baseline in FVC at 12 weeks; type: in vivo, human; conditions: for lung function (FVC) compared to placebo: non-AF-background and AF-background groups; for lung function (FVC) compared to placebo / mean change in FVC from baseline to Week 12 / median change in FVC: 18 mg twice daily; for probability that the compound is superior to placebo: Bayesian borrowing analysis; for median change in FVC / median difference in FVC change vs placebo: Bayesian borrowing
Source text: Patients with a usual interstitial pneumonia (UIP) or probable UIP pattern on high-resolution computed tomography consistent with idiopathic pulmonary fibrosis, confirmed by central review, were eligible (Raghu et al, AM j Respir Crit Care Med 2019; 200:1089-1092). Patients also had forced FVC ≥45% predicted, and diffusing capacity of the lungs for carbon monoxide (DLco) corrected for hemoglobin 25-<80% predicted. Patients were permitted to continue antifibrotic therapy (nintedanib or pirfenidone) if they had been receiving a stable dose for at least 8 weeks prior to screening. Patients with airways obstruction, recent respiratory tract infection, or a history of suicidal behavior in the past 2 years, were excluded.
The primary endpoint—change from baseline in FVC at Week 12—was evaluated separately in patients without and with background antifibrotics at baseline, and included all data collected while on treatment. The primary analysis was based on a Bayesian borrowing approach in order to incorporate historical data for the placebo arms within the groups treated without or with background antifibrotics via meta-analytic predictive priors that were made robust against prior-data conflicts (Schmidli et al, Biometrics 2014 70: 1023-1032). A vaguely informative prior was used for the arms using the PDE4 inhibitor of formula A′ (Compound of formula A′ in the following). The primary endpoint analysis was conducted in a two-step procedure. In the first step, the data from the current trial were analyzed with a restricted maximum likelihood-based approach using a mixed model with repeated measurements (MMRM). The analysis included the fixed, categorical effect of treatment at each visit, and the fixed, continuous effects of baseline FVC at each visit. Visit was treated as the repeated measure, with an unstructured covariance structure used to model the within-patient measurements. Based on this model, the adjusted mean changes from baseline in FVC at 12 weeks (and the related standard error) were calculated for the Compound of formula A′ and placebo arms within the patient groups without and with background antifibrotics. In the second step, the adjusted means in the placebo arms were combined with the meta-analytic predictive priors derived based on the clinical trials in the nintedanib clinical development program in idiopathic pulmonary fibrosis. In order to evaluate the treatment effects in each group, the posterior distribution for the treatment difference of the compound of formula A′ versus placebo with respect to the primary endpoint was used. The median of the posterior distribution for the treatment difference (and 95% credible intervals) was calculated as the primary analysis, and posterior probabilities that the treatment difference was higher than different boundaries were reported.
Missing data for the primary analysis (continuous endpoint) were not imputed. The MMRM analysis allows for missing data, assuming they are missing at random. Sensitivity analyses were conducted to investigate the potential effect of missing data as well as early discontinuation via a treatment policy strategy, and a pooled analysis combining all patients irrespective of background treatment with antifibrotics.
As this was an exploratory trial, no confirmatory testing and adjustment for multiplicity was planned. The sample size was chosen based on the evaluations of posterior probabilities for the change from baseline in FVC at Week 12, assuming a standard deviation of 200 mL and treatment differences of 70 mL and 20 mL in the patients treated without or with background antifibrotics, respectively.

[2] = tested on: patients with idiopathic pulmonary fibrosis; assay: Phase 2 trial NCT04419506: treatment-emergent adverse events; conditions: for mean observed weight loss: over 12 weeks; for Any adverse event: 18 mg twice daily, 12 weeks
Source text: The study was a double-blind, placebo-controlled, parallel-design, Phase 2 study performed at 90 sites in 22 countries. […] After completion of the 12-week treatment period, patients entered a 1-week follow-up period. Patients who prematurely discontinued study medication were asked to attend all visits as originally planned to minimize missing data. […] Patients, investigators, central reviewers, and those involved in the study conduct and analysis were unaware of the treatment assignments. An interactive voice-response system was used to perform randomization.
The secondary endpoint was the percentage of patients with treatment-emergent adverse events.
All treated patients were included in the safety analysis, stratified by use of background antifibrotics (no or yes), and the analysis was descriptive in nature. Safety was assessed by clinical and laboratory evaluation and the recording of treatment-emergent adverse events, as coded with the use of the Medical Dictionary for Regulatory Activities, version 22.0.

[3] = with background antifibrotics, Week 12
[4] = without background antifibrotics
[5] = without background antifibrotics, Week 12
[6] = with background antifibrotics (N = 49)
[7] = without background antifibrotics (N = 48)

`[O-][S@+]1CCc2nc(N3CCC(c4ncc(Cl)cn4)CC3)nc(NC3(CO)CCC3)c21` [Compound of formula A′] was tested. Which “lung function (FVC) compared to placebo” value [1] did it give?
Its value is “stabilized lung function”.

And the “lung function (FVC) compared to placebo” value ([1]; listed as PDE4-inhibitor of formula A′)?
Its value is “significantly slowed decrease in lung function”.

And the “adjusted mean change from baseline in FVC after 12 weeks” value ([1]; pooled group with and without background antifibrotics, MMRM)?
The value was “+4.6 ml”.

And the “overall treatment effect on FVC (difference vs placebo)” value ([1]; pooled group with and without background antifibrotics, MMRM, Week 12)?
Its value is 88.4 mL.

And the “probability that the compound is superior to placebo” value ([1]; with background antifibrotics)?
The value was 98.6%.

What about the “mean change in FVC from baseline to Week 12” value ([1]; with background antifibrotics, MMRM) of the same compound?
Its value is “+2.7 mL”.

What about the “difference in mean FVC change vs placebo” value ([1]; with background antifibrotics, MMRM, Week 12) of the same compound?
The value was 80.4 mL.

What about the “median change in FVC” value [1, 3] of the same compound?
Its value is “+2.7 mL”.

And the “median difference in FVC change vs placebo” value [1, 3]?
Its value is 62.4 mL.

And the “probability that the compound is superior to placebo” value [1, 4]?
Its value is 99.8%.

And the “mean change in FVC from baseline to Week 12” value ([1]; without background antifibrotics, MMRM)?
Its value is “+6.1 mL”.

And the “difference in mean FVC change vs placebo” value ([1]; without background antifibrotics, MMRM, Week 12)?
Its value is 101.7 mL.

And the “median change in FVC” value [1, 5]?
Its value is “+5.7 mL”.

What about the “median difference in FVC change vs placebo” value [1, 5] of the same compound?
The value was 88.4 mL.

What about the “mean observed weight loss” value ([2]; group with antifibrotics) of the same compound?
Its value is -1.41 kg.

What about the “mean observed weight loss” value ([2]; group without antifibrotics) of the same compound?
The value was -0.76 kg.

What about the “patients with fatal adverse events” value ([2]; treatment arm, both background groups together) of the same compound?
The value was 2 patients.

What about the “discontinuation of the study because of adverse events” value ([2]; with background antifibrotics) of the same compound?
The value was 10 patients.

What about the “patients with gastrointestinal disorders” value ([2]; with background antifibrotics) of the same compound?
The value was 36.7%.

What about the “patients with serious adverse events” value ([2]; with background antifibrotics) of the same compound?
The value was 6.1%.

What about the “patients with severe adverse events” value ([2]; with background antifibrotics) of the same compound?
The value was 4.1%.

What about the “Adverse events leading to discontinuation of study drug” value [2, 6] of the same compound?
Its value is 10 (20.4) n (%).

And the Asthenia [2, 6]?
Its Asthenia is 1 (2.0) n (%).

And the Cough [2, 6]?
Its Cough is 4 (8.2) n (%).

What about the Decreased appetite [2, 6] of the same compound?
Its Decreased appetite is 2 (4.1) n (%).

What about the Diarrhea [2, 6] of the same compound?
Its Diarrhea is 15 (30.6) n (%).

And the “Diarrhea leading to discontinuation” value [2, 6]?
Its value is 3 (6.1) n (%).

And the Dyspepsia [2, 6]?
Its Dyspepsia is 2 (4.1) n (%).

And the Dyspnea [2, 6]?
The Dyspnea was 0 (0.0) n (%).

What about the Fatigue [2, 6] of the same compound?
Its Fatigue is 1 (2.0) n (%).

What about the Flatulence [2, 6] of the same compound?
Its Flatulence is 2 (4.1) n (%).

And the Gastrointestinal disorders [2, 6]?
Its Gastrointestinal disorders is 18 (36.7) n (%).

And the “General disorders and administration site conditions” value [2, 6]?
Its value is 7 (14.3) n (%).

What about the Headache [2, 6] of the same compound?
Its Headache is 3 (6.1) n (%).

What about the Infections and infestations [2, 6] of the same compound?
Its Infections and infestations is 7 (14.3) n (%).

And the Investigations [2, 6]?
Its Investigations is 10 (20.4) n (%).

What about the “Investigator-defined drug-related adverse events” value [2, 6] of the same compound?
Its value is 18 (36.7) n (%).

And the “Metabolism and nutrition disorders” value [2, 6]?
Its value is 3 (6.1) n (%).

What about the Nasopharyngitis [2, 6] of the same compound?
The Nasopharyngitis was 4 (8.2) n (%).

And the Nausea [2, 6]?
The Nausea was 1 (2.0) n (%).

What about the Nervous system disorder [2, 6] of the same compound?
The Nervous system disorder was 9 (18.4) n (%).

And the “Patients with pre-specified adverse events of special interest (vasculitis and hepatic injury)” value [2, 6]?
The value was 1 (2.0) n (%).

What about the “Respiratory thoracic and mediastinal disorders” value [2, 6] of the same compound?
The value was 6 (12.2) n (%).

And the “Serious adverse events: All” value [2, 6]?
The value was 3 (6.1) n (%).

What about the “Serious adverse events: Other comparable medical criteria” value [2, 6] of the same compound?
The value was 0 (0.0) n (%).

And the “Serious adverse events: Required or prolonged hospitalization” value [2, 6]?
Its value is 3 (6.1) n (%).

And the “Serious adverse events: Resulted in death” value [2, 6]?
The value was 1 (2.0) n (%).

What about the Severe adverse events [2, 6] of the same compound?
The Severe adverse events was 2 (4.1) n (%).

And the Vomiting [2, 6]?
Its Vomiting is 2 (4.1) n (%).

And the Weight decreased [2, 6]?
The Weight decreased was 1 (2.0) n (%).

What about the Any adverse event [2, 6] of the same compound?
Its Any adverse event is 36 (73.5) n (%).

What about the “patients with serious adverse events” value ([2]; without antifibrotics) of the same compound?
The value was 6.3%.

What about the “discontinuation of the study because of adverse events” value [2, 4] of the same compound?
Its value is 3 patients.

What about the “patients with gastrointestinal disorders” value [2, 4] of the same compound?
The value was 27.1%.

And the “patients with severe adverse events” value [2, 4]?
The value was 4.2%.

What about the “Adverse events leading to discontinuation of study drug” value [2, 7] of the same compound?
The value was 3 (6.3) n (%).

What about the Asthenia [2, 7] of the same compound?
Its Asthenia is 3 (6.3) n (%).

And the Cough [2, 7]?
Its Cough is 3 (6.3) n (%).

And the Decreased appetite [2, 7]?
Its Decreased appetite is 1 (2.1) n (%).

And the Diarrhea [2, 7]?
The Diarrhea was 8 (16.7) n (%).

What about the “Diarrhea leading to discontinuation” value [2, 7] of the same compound?
Its value is 0 (0.0) n (%).

What about the Dyspepsia [2, 7] of the same compound?
Its Dyspepsia is 3 (6.3) n (%).

And the Dyspnea [2, 7]?
Its Dyspnea is 3 (6.3) n (%).

What about the Fatigue [2, 7] of the same compound?
The Fatigue was 2 (4.2) n (%).

What about the Flatulence [2, 7] of the same compound?
The Flatulence was 3 (6.3) n (%).

What about the Gastrointestinal disorders [2, 7] of the same compound?
The Gastrointestinal disorders was 13 (27.1) n (%).

And the “General disorders and administration site conditions” value [2, 7]?
Its value is 9 (18.8) n (%).

And the Headache [2, 7]?
The Headache was 3 (6.3) n (%).

And the Infections and infestations [2, 7]?
Its Infections and infestations is 6 (12.5) n (%).

What about the Investigations [2, 7] of the same compound?
Its Investigations is 5 (10.4) n (%).

What about the “Investigator-defined drug-related adverse events” value [2, 7] of the same compound?
The value was 9 (18.8) n (%).

And the “Metabolism and nutrition disorders” value [2, 7]?
The value was 1 (2.1) n (%).

What about the Nasopharyngitis [2, 7] of the same compound?
The Nasopharyngitis was 0 (0.0) n (%).

And the Nausea [2, 7]?
The Nausea was 2 (4.2) n (%).

What about the Nervous system disorder [2, 7] of the same compound?
Its Nervous system disorder is 4 (8.3) n (%).

What about the “Patients with pre-specified adverse events of special interest (vasculitis and hepatic injury)” value [2, 7] of the same compound?
Its value is 0 (0.0) n (%).

What about the “Respiratory thoracic and mediastinal disorders” value [2, 7] of the same compound?
Its value is 8 (16.7) n (%).

And the “Serious adverse events: All” value [2, 7]?
The value was 3 (6.3) n (%).

And the “Serious adverse events: Other comparable medical criteria” value [2, 7]?
Its value is 1 (2.1) n (%).

And the “Serious adverse events: Required or prolonged hospitalization” value [2, 7]?
Its value is 2 (4.2) n (%).

And the “Serious adverse events: Resulted in death” value [2, 7]?
Its value is 1 (2.1) n (%).

What about the Severe adverse events [2, 7] of the same compound?
Its Severe adverse events is 2 (4.2) n (%).

And the Vomiting [2, 7]?
The Vomiting was 1 (2.1) n (%).

What about the Weight decreased [2, 7] of the same compound?
Its Weight decreased is 2 (4.2) n (%).

What about the Any adverse event [2, 7] of the same compound?
Its Any adverse event is 31 (64.6) n (%).
